Results as given in US20150290265A1, “COMPOSITION FOR TREATING METABOLIC DISORDERS” (PIRAMAL ENTERPRISES LIMITED, priority 2012, published 2015).

Legend:
[1] = High fat diet (HFD) induced body weight gain study in mice; assay type: in vivo, C57BL/6J mice; conditions: Mean ± S.E.M.
Experimental: Male C57BL/6J mice (in-house; Central Animal Facility, Piramal Healthcare Limited, Goregaon, Mumbai, Maharashtra, India) were acclimatized with HFD (60% Kcal, D12492, Research Diets, USA) for two weeks. […] Orlistat (Biocon, India) was used as the standard drug and was administered orally at a dose of 15 mg/kg body weight, twice daily. A separate group of ten mice was fed a low fat diet (LFD, 10% kcal, D12450B, Research Diet, USA) as a normal control. Vehicle was administered to the HFD and LFD control groups at dose of 10 mL/kg body weight. The treatments were continued for a period of sixty days. Body weight and feed intake were monitored daily. The % change in body weight (% increase in body weight from day 1) and the cumulative feed intake data was calculated. On day sixtyone, blood samples (˜200 μL/mice) were collected in heparinised (50 IU/mL) micro-centrifuge tubes under isoflurane anesthesia. Plasma was separated by centrifugation at 10000 rpm at 4° C. for estimation of various plasma biochemistry parameters. The biochemistry analysis was performed on BS-400 autoanalyzer (Mindray, China). […] All the data was analyzed for statistical significance by one-way ANOVA followed by Dunnet's post-hoc test and values of P<0.05 were considered as significant. […]

human DGAT-1 enzyme = molecular target: T1, human DGAT-1 enzyme (Homo sapiens, UniProt O75907); assay: hDGAT-1 inhibition assay (microsomes from Sf9 cells, [14C]oleoyl-CoA incorporation); assay type: biochemical; conditions: 50 μg/mL
T1 construct: host or cells: Sf9 insect cells (baculovirus, Bac-to-Bac); microsomal fraction
T1 sequence (O75907 1-488): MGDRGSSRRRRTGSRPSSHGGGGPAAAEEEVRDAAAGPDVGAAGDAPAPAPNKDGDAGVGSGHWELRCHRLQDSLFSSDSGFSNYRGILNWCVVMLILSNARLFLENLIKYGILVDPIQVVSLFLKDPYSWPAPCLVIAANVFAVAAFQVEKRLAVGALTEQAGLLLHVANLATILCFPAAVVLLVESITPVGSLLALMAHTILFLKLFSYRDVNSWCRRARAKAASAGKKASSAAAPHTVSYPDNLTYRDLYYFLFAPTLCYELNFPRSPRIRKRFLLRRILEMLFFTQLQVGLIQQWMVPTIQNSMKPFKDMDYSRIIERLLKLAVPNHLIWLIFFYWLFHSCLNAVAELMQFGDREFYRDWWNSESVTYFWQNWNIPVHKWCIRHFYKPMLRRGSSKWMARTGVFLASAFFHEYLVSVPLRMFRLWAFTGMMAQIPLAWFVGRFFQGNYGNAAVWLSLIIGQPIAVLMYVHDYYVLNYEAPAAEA
Experimental: The DGAT-1 assay was designed using human DGAT-1 enzyme over expressed in Sf9 cell-line as described in the reference, European Journal of Pharmacology, 650, 663-672, 2011, the disclosure of which is incorporated by reference for the teaching of the assay.
Enzyme was diluted to a working concentration of 1 mg/mL in hDGAT-1 assay buffer, 2.5 μL of the working enzyme stock was used in hDGAT-1 assay (final concentration 25 μg/mL).
The test samples were prepared as follows. […] The working stock was prepared in hDGAT-1 assay buffer. 10 μL of working stock was added into 100 μL of assay mixture to obtain the final concentration of extracts at 50 μg/mL.
60 μL of substrate mix (as described above) was added to a total assay volume of 100 μL. The reaction was started by adding 2.5 μg hDGAT-1 containing microsomal protein and was incubated at 37° C. for 10 min. The reaction was stopped by adding 300 μL of alkaline ethanol stop solution mix (AESSM). […] 250 μL of the upper heptane was added into 4 mL of scintillation fluid and measured using a liquid scintillation counter (Packard; 1600CA) as disintegration per min (dpm) counts. The percentage inhibition was calculated with respect to the vehicle.

SCD-1 enzyme = molecular target: T2, SCD-1 enzyme (Rattus norvegicus, UniProt P07308); assay: SCD-1 inhibition assay (rat liver microsomes, 3H2O release); assay type: biochemical; conditions: 50 μg/mL
T2 construct: Male Sprague-Dawley rats (150-175 g) were fasted for two days and then fed on low fat diet for three days to induce SCD-1 activity; from tissue; host or cells: liver microsomes of male Sprague-Dawley rats
T2 sequence (P07308 1-358): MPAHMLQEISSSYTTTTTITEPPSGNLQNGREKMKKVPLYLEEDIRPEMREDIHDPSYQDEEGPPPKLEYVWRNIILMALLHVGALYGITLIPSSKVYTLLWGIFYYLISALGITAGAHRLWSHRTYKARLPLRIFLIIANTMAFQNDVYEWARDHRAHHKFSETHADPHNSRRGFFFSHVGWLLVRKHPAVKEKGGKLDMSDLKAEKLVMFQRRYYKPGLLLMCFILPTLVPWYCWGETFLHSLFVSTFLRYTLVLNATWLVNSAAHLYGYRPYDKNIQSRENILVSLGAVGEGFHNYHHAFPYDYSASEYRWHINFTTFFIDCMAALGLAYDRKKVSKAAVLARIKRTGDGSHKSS
Experimental: The assay was carried out according to the method described in reference, European Journal of Pharmacology, 618, 28-36, 2009, the disclosure of which is incorporated by reference for the teaching of the assay.
The SCD-1 enzyme was prepared from rat liver microsomes as described in PCT Publication Application WO2008/074835A1, the disclosure of which is incorporated herein by reference for the teaching of the assay.
Male Sprague-Dawley rats (150-175 g) were fasted for two days and then fed on low fat diet for three days to induce SCD-1 activity. The rats were then sacrificed and their livers were removed and placed on ice. The livers were finely chopped with scissors and then homogenized using a Polytron homogenizer in a homogenization buffer (150 mM KCl, 250 mM sucrose, 50 mM tris-HCl, pH 7.5, 5 mM EDTA, and 1.5 mM reduced glutathione) at 4° C. The homogenate was centrifuged at 1500×g for 20 min at 4° C. […]
The microsomes (62.5 μg) were treated with the test sample for 15 min. […] The filtrate containing ^3H2O was transferred to scintillation vials containing 4 mL of scintillation fluid and the cpm counts were measured using a liquid scintillation counter. The % inhibition was calculated with reference to the vehicle control.
The dose response was determined at concentrations of 25 μg/mL, 50 μg/mL and 100 μg/mL by serially diluting stock solutions of Extract of Example 2.

activity in the hDGAT-1 inhibition assay (conclusion) (human DGAT-1 enzyme) | inhibition at 50 µg/mL (human DGAT-1 enzyme; Table 1) [%] | activity in the SCD-1 inhibition assay (conclusion) (SCD-1 enzyme) | inhibition at 50 µg/mL (SCD-1 enzyme; Table 3) [%] | SMILES | Body weight (g, day 0) ([1]; day 0 (baseline)) [g] | Body weight (g, day 60) ([1]; day 60, Extract 500 mg/kg orally once daily, Orlistat 15 mg/kg orally twice daily) [g]
– | – | – | – | CCCCCCCCCCC[C@@H](C[C@@H]1OC(=O)[C@H]1CCCCCC)OC(=O)[C@H](CC(C)C)NC=O [Orlistat] | 26.4 ± 0.4 | 30.9 ± 0.9
active | 85 | active | 74.2 | C[C@@H]1O[C@@H](Oc2cc3c(=O)oc4c(O)c(O)cc5c(=O)oc(c2O)c3c45)[C@H](O)[C@H](O)[C@H]1O [The compound 1, Ellagic acid, 4-O-alpha-L-rhamnopyranoside] | – | –
